As a reminder, the MIC is the least concentration at which growth counts as inhibited.

These results are taken from paper PMC11218446, “Antibacterial efficacy and membrane mechanism of action of the Serratia-derived non-ionic lipopeptide, serrawettin W2-FL10” (Microbiology Spectrum, 2024).

In data set [1] the test system is Chinese hamster ovarian (CHO) cell line. The data set can be described thus: Mammalian cell cytotoxicity, MTT assay. Conditions: CHO cells, MTT, 48 h; reference drug. How it is done: To determine the biocompatibility of W2-FL10 as a potential therapeutic agent, the in vitro cytotoxicity of W2-FL10 against the CHO cell line ([50]) was determined over 48 h by the Drug Discovery and Development Centre at the University of Cape Town, as previously described by Mosmann ([51]). Briefly, W2-FL10 was prepared to a 10 mM stock solution in 100% DMSO and dilutions were prepared in growth media. The CHO cell line density of 10^5 cells/well in 96-well plates and allowed to attach for 24 h. Thereafter, the compound was added to the 96-well plates at various concentrations from 50 µM down to 16 nM and incubated for a further 48 h. At 44 h, MTT was added to the wells, and the plates were read 4 h later at 540 nm on a spectrophotometer. […] Finally, cell inhibition was plotted against concentration and the 50% lethal concentration (LC50) parameter and a minimum lethal concentration (MLC90) were obtained as described for the dose responses against bacterial targets above (equation 1).

Data set [2] has as its system methicillin-resistant S. aureus (MRSA). The following applies: cited from earlier work. The text has this:
The antimicrobial activity of the serrawettin W2-FI10 analog (i.e., C10H18O2-Leu-Ser-Thr-Phe-Ile), has been extensively investigated.

In a further data set the test system is Escherichia coli. The following applies: cited from earlier work. The text has this:
(§1) Key parameters contributing to the antimicrobial activity of lipopeptides include hydrophobicity and net charge ([5], [24]). Serrawettin W2-FL10 is a relatively small and moderately amphipathic lipopeptide with a neutral charge.

Another data set has as its system L. monocytogenes B73. The following applies: cited from earlier work.
Text: as §1

Consider `CC[C@H]1CN2CCc3cc(OC)c(OC)cc3[C@@H]2C[C@@H]1C[C@H]1NCCc2cc(OC)c(OC)cc21` [emetine, reference compound], for which the LC50 entry in data set [1] is “approximately 40 nM”.
Turning to “C10H18O2-Leu-Ser-Thr-Phe-Ile (lariat or depsi) [W2-FI10, serrawettin W2-FI10, serrawettin W2 analog, C10H18O2-Leu-Ser-Thr-Phe-Ile]”, in data set [2], the “concentration with inhibitory activity” value is 4 µg/mL.
As to PGla, in the data set with Escherichia coli, the ICF is recorded as 2.5.
Consider gramicidin S, for which the ICF in the data set on Escherichia coli is reported as 5.7.
Regarding tyrocidine C, in the data set on L. monocytogenes B73, the ICF is 1.9 and the MIC is reported as 13 µM.
